US20250230193A1, “CYCLIC COMPOUND HAVING SELECTIVE KRAS INHIBITORY EFFECT ON HRAS AND NRAS” (CHUGAI SEIYAKU KABUSHIKI KAISHA, priority 2022, published 2025)

What was measured:
[1] = target: GDP-bound HRAS wild-type protein (Homo sapiens, UniProt P01112); test: Binding to HRAS by surface plasmon resonance (SPR), Single Cycle Kinetics; conditions: KD ratio, GDP-bound HRAS wild-type vs GDP-bound KRAS wild-type, SPR
[2] = target: GDP-bound NRAS wild-type protein (Homo sapiens, UniProt P01111); test: Binding to NRAS by surface plasmon resonance (SPR), Single Cycle Kinetics; conditions: KD ratio, GDP-bound NRAS wild-type vs GDP-bound KRAS wild-type, SPR
Sequence of GDP-bound NRAS wild-type protein (P01111 whole entry): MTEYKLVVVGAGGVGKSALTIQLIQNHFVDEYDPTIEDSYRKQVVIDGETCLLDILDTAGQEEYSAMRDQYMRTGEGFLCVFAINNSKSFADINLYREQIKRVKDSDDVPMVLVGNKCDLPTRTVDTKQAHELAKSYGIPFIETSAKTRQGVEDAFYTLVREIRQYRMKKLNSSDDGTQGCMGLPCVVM

Sequence of GDP-bound HRAS wild-type protein (P01112 whole entry): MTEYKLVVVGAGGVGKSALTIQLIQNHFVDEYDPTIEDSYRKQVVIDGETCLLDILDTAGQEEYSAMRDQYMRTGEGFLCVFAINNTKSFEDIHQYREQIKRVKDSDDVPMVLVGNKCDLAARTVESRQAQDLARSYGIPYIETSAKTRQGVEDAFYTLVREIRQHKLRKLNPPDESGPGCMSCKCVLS

Compound | HRAS/KRAS (ratio of KD value with respect to HRAS to KD value with respect to KRAS) [1] | NRAS/KRAS (ratio of KD value with respect to NRAS to KD value with respect to KRAS) [2]
CCO[C@@H]1C[C@H]2C(=O)NC3(CCC3)C(=O)N(C)[C@@H](C3CCCC3)C(=O)N(C)[C@H](C(=O)N3CCOCC3)CC(=O)N(C)[C@@H](CC(C)C)C(=O)N[C@@H]([C@@H](C)CC)C(=O)N(C)CC(=O)N(C)[C@H]3CCCCCN(C3=O)[C@@H](Cc3nccs3)C(=O)N(C)CC(=O)N[C@@H](CCc3cc(F)c(C(F)(F)F)c(F)c3)C(=O)N2C1 [PP0923] | B (a compound having 3 or more and less than 10 is denoted as B) | B (a compound having 3 or more and less than 10 is denoted as B)
CCO[C@@H]1C[C@H]2C(=O)NC3(CCC3)C(=O)N(C)[C@@H](C3CCCC3)C(=O)N(C)[C@H](C(=O)N3CCOCC3)CC(=O)N(C)[C@@H](CC(C)C)C(=O)N[C@@H]([C@@H](C)CC)C(=O)N(C)CC(=O)N(C)[C@H]3CCCCCN(C3=O)[C@@H](Cc3ccc(F)cc3OC)C(=O)N(C)CC(=O)N[C@@H](CCc3cc(F)c(C(F)(F)F)c(F)c3)C(=O)N2C1 [PP0924] | B (a compound having 3 or more and less than 10 is denoted as B) | B (a compound having 3 or more and less than 10 is denoted as B)
CCO[C@@H]1C[C@H]2C(=O)NC3(CCC3)C(=O)N(C)[C@@H](C3CCCC3)C(=O)N(C)[C@H](C(=O)N3CCOCC3)CC(=O)N(C)[C@@H](Cc3ccccc3F)C(=O)N[C@@H]([C@@H](C)CC)C(=O)N(C)CC(=O)N(C)[C@H]3CCCCCN(C3=O)[C@@H](Cc3ccc(C(F)(F)F)cc3)C(=O)N(C)CC(=O)N[C@@H](CCc3cc(F)c(C(F)(F)F)c(F)c3)C(=O)N2C1 [PP0926] | B (a compound having 3 or more and less than 10 is denoted as B) | B (a compound having 3 or more and less than 10 is denoted as B)
CCO[C@@H]1C[C@H]2C(=O)NC3(CCC3)C(=O)N(C)[C@@H](C3CCCC3)C(=O)N(C)[C@H](C(=O)N3CCOCC3)CC(=O)N(C)[C@@H](Cc3ccc(F)c(F)c3)C(=O)N[C@@H]([C@@H](C)CC)C(=O)N(C)CC(=O)N(C)[C@H]3CCCCCN(C3=O)[C@@H](Cc3ccc(C(F)(F)F)cc3)C(=O)N(C)CC(=O)N[C@@H](CCc3cc(F)c(C(F)(F)F)c(F)c3)C(=O)N2C1 [PP0928] | B (a compound having 3 or more and less than 10 is denoted as B) | A (a compound having 10 or more and less than 20 is denoted as A)
CCO[C@@H]1C[C@H]2C(=O)NC3(CCC3)C(=O)N(C)[C@@H](C3CCCC3)C(=O)N(C)[C@H](C(=O)N3CCOCC3)CC(=O)N(C)[C@@H](Cc3ccccc3Cl)C(=O)N[C@@H]([C@@H](C)CC)C(=O)N(C)CC(=O)N(C)[C@H]3CCCCCN(C3=O)[C@@H](Cc3ccc(C(F)(F)F)cc3)C(=O)N(C)CC(=O)N[C@@H](CCc3cc(F)c(C(F)(F)F)c(F)c3)C(=O)N2C1 [PP0929] | B (a compound having 3 or more and less than 10 is denoted as B) | A (a compound having 10 or more and less than 20 is denoted as A)
CCO[C@@H]1C[C@H]2C(=O)NC3(CCC3)C(=O)N(C)[C@@H](C3CCCC3)C(=O)N(C)[C@H](C(=O)N3CCOCC3)CC(=O)N(C)[C@@H](Cc3ccccc3C)C(=O)N[C@@H]([C@@H](C)CC)C(=O)N(C)CC(=O)N(C)[C@H]3CCCCCN(C3=O)[C@@H](Cc3ccc(C(F)(F)F)cc3)C(=O)N(C)CC(=O)N[C@@H](CCc3cc(F)c(C(F)(F)F)c(F)c3)C(=O)N2C1 [PP0931] | B (a compound having 3 or more and less than 10 is denoted as B) | A (a compound having 10 or more and less than 20 is denoted as A)
CCO[C@@H]1C[C@H]2C(=O)NC3(CCC3)C(=O)N(C)[C@@H](C3CCCC3)C(=O)N(C)[C@H](C(=O)N3CCOCC3)CC(=O)N(C)[C@@H](Cc3cccc(C)c3)C(=O)N[C@@H]([C@@H](C)CC)C(=O)N(C)CC(=O)N(C)[C@H]3CCCCCN(C3=O)[C@@H](Cc3ccc(C(F)(F)F)cc3)C(=O)N(C)CC(=O)N[C@@H](CCc3cc(F)c(C(F)(F)F)c(F)c3)C(=O)N2C1 [PP0932] | B (a compound having 3 or more and less than 10 is denoted as B) | B (a compound having 3 or more and less than 10 is denoted as B)
CCO[C@@H]1C[C@H]2C(=O)NC3(CCC3)C(=O)N(C)[C@@H](C3CCCC3)C(=O)N(C)[C@H](C(=O)N3CCOCC3)CC(=O)N(C)[C@@H](Cc3ccc(C)cc3)C(=O)N[C@@H]([C@@H](C)CC)C(=O)N(C)CC(=O)N(C)[C@H]3CCCCCN(C3=O)[C@@H](Cc3ccc(C(F)(F)F)cc3)C(=O)N(C)CC(=O)N[C@@H](CCc3cc(F)c(C(F)(F)F)c(F)c3)C(=O)N2C1 [PP0933] | B (a compound having 3 or more and less than 10 is denoted as B) | A (a compound having 10 or more and less than 20 is denoted as A)
CCO[C@@H]1C[C@H]2C(=O)NC3(CCC3)C(=O)N(C)[C@@H](C3CCCC3)C(=O)N(C)[C@H](C(=O)N(C)C)CC(=O)N(C)[C@@H](Cc3ccccc3F)C(=O)N[C@@H]([C@@H](C)CC)C(=O)N(C)CC(=O)N(C)[C@H]3CCCCCN(C3=O)[C@@H](Cc3ccc(C(F)(F)F)cc3)C(=O)N(C)CC(=O)N[C@@H](CCc3cc(F)c(C(F)(F)F)c(F)c3)C(=O)N2C1 [PP0934] | B (a compound having 3 or more and less than 10 is denoted as B) | B (a compound having 3 or more and less than 10 is denoted as B)
CCO[C@@H]1C[C@H]2C(=O)NC3(CCC3)C(=O)N(C)[C@@H](C3CCCC3)C(=O)N(C)[C@H](C(=O)N(C)C)CC(=O)N(C)[C@@H](Cc3cccc(F)c3)C(=O)N[C@@H]([C@@H](C)CC)C(=O)N(C)CC(=O)N(C)[C@H]3CCCCCN(C3=O)[C@@H](Cc3ccc(C(F)(F)F)cc3)C(=O)N(C)CC(=O)N[C@@H](CCc3cc(F)c(C(F)(F)F)c(F)c3)C(=O)N2C1 [PP0935] | B (a compound having 3 or more and less than 10 is denoted as B) | B (a compound having 3 or more and less than 10 is denoted as B)
CCO[C@@H]1C[C@H]2C(=O)NC3(CCC3)C(=O)N(C)[C@@H](C3CCCC3)C(=O)N(C)[C@H](C(=O)N(C)C)CC(=O)N(C)[C@@H](Cc3ccc(F)cc3)C(=O)N[C@@H]([C@@H](C)CC)C(=O)N(C)CC(=O)N(C)[C@H]3CCCCCN(C3=O)[C@@H](Cc3ccc(C(F)(F)F)cc3)C(=O)N(C)CC(=O)N[C@@H](CCc3cc(F)c(C(F)(F)F)c(F)c3)C(=O)N2C1 [PP0936] | B (a compound having 3 or more and less than 10 is denoted as B) | B (a compound having 3 or more and less than 10 is denoted as B)
CCO[C@@H]1C[C@H]2C(=O)NC3(CCC3)C(=O)N(C)[C@@H](C3CCCC3)C(=O)N(C)[C@H](C(=O)N(C)C)CC(=O)N(C)[C@@H](Cc3ccc(F)c(F)c3)C(=O)N[C@@H]([C@@H](C)CC)C(=O)N(C)CC(=O)N(C)[C@H]3CCCCCN(C3=O)[C@@H](Cc3ccc(C(F)(F)F)cc3)C(=O)N(C)CC(=O)N[C@@H](CCc3cc(F)c(C(F)(F)F)c(F)c3)C(=O)N2C1 [PP0937] | B (a compound having 3 or more and less than 10 is denoted as B) | B (a compound having 3 or more and less than 10 is denoted as B)
CCO[C@@H]1C[C@H]2C(=O)NC3(CCC3)C(=O)N(C)[C@@H](C3CCCC3)C(=O)N(C)[C@H](C(=O)N(C)C)CC(=O)N(C)[C@@H](Cc3cccc(Cl)c3)C(=O)N[C@@H]([C@@H](C)CC)C(=O)N(C)CC(=O)N(C)[C@H]3CCCCCN(C3=O)[C@@H](Cc3ccc(C(F)(F)F)cc3)C(=O)N(C)CC(=O)N[C@@H](CCc3cc(F)c(C(F)(F)F)c(F)c3)C(=O)N2C1 [PP0939] | B (a compound having 3 or more and less than 10 is denoted as B) | B (a compound having 3 or more and less than 10 is denoted as B)
CCO[C@@H]1C[C@H]2C(=O)NC3(CCC3)C(=O)N(C)[C@@H](C3CCCC3)C(=O)N(C)[C@H](C(=O)N(C)C)CC(=O)N(C)[C@@H](Cc3ccc(Cl)cc3)C(=O)N[C@@H]([C@@H](C)CC)C(=O)N(C)CC(=O)N(C)[C@H]3CCCCCN(C3=O)[C@@H](Cc3ccc(C(F)(F)F)cc3)C(=O)N(C)CC(=O)N[C@@H](CCc3cc(F)c(C(F)(F)F)c(F)c3)C(=O)N2C1 [PP0940] | C (A compound having a KD ratio of 0.1 or more and less than 3 is denoted as C) | B (a compound having 3 or more and less than 10 is denoted as B)
CCO[C@@H]1C[C@H]2C(=O)NC3(CCC3)C(=O)N(C)[C@@H](C3CCCC3)C(=O)N(C)[C@H](C(=O)N(C)C)CC(=O)N(C)[C@@H](Cc3ccccc3C)C(=O)N[C@@H]([C@@H](C)CC)C(=O)N(C)CC(=O)N(C)[C@H]3CCCCCN(C3=O)[C@@H](Cc3ccc(C(F)(F)F)cc3)C(=O)N(C)CC(=O)N[C@@H](CCc3cc(F)c(C(F)(F)F)c(F)c3)C(=O)N2C1 [PP0941] | B (a compound having 3 or more and less than 10 is denoted as B) | B (a compound having 3 or more and less than 10 is denoted as B)
